In brackets after ≈: the same amount, converted by molar mass. Several values for one entry are separate records, joined by “and”; a condition that tells them apart may be missing. Equal values may be shown once. Read-outs that look alike come from different tables or passages of the source.
Experiments:
[1] = tested on: SARS-CoV-2 isolate USA-WA1/2020 in Vero-E6 cells; assay: Virus plaque formation assay; type: cell-based
[2] = tested on: S. aureus (ATCC 29213); assay: Broth microdilution MIC assay, S. aureus; settings: for MIC: Staphylococcus aureus, ATCC29213, read-out: MIC (bacterial growth inhibition), S. aureus; for higher efficacy than harmaline: antibacterial efficacy versus harmaline; for higher antibacterial activity than harmaline dimer without a substitution (GZ440/6): versus GZ440/6
Experimental: (§2) The concentration of compound required to visibly stop the growth of bacteria is known as minimum inhibitory concentration (MIC). Different concentrations of the compounds are tested for the exact same number of bacteria, and the growth is monitored with time.
(§3) Bacterial strains were purchased from the American Type Culture Collection (ATCC) for the studies.
(§4) The MIC assay procedure follows the guidelines set by the Clinical Laboratory Sciences Institute (CLSI).
(§5) To do this, bacteria were transferred from pure agar culture, aseptically transferred in 5 mL of Cation-Adjusted Mueller-Hinton Broth (CAMHB). The broth was incubated overnight at 35° C. to stationary phase to achieve a turbidity suspension. A spectrophotometer (SpectraMax ID5) was used to measure the turbidity (optical density—OD at 625 nm). The inoculum was prepared by adjusting the turbidity of overnight culture to 0.5 McFarland, which is equal to the defined number of bacteria 1×10^8 CFU/ml.
(§6) (b) Compound Dilution: All compounds used in the study were dissolved in sterile ultra-pure DMSO (VWR International, PA, USA) and maintained at −80° C. Stock solution of the compound was freshly prepared the day of use or is prepared from a frozen stock solution stored at −80° C. […] The compound solution was prepared at a desired concentration in DMSO, and 1/10 dilution was performed in a sterile CAMHB medium. This 10-fold dilution of stock solution was used for a 2-fold serial dilution in a 96-well plate to observe an inhibitory effect of the compound on bacterial growth. 100 μL of diluted drug solution was transferred to a first column of the 96-well plate. 50 μL of sterile CAMHB was transferred to each well from well 2 to well 12. Next, 50 μL was removed from well 1 and added to well 2. The contents from well 2 were mixed by pipetting up and down. Next, 50 µL were removed from well 2 and added to well 3. This process was continued till well 11 is reached. 50 μL was discarded from the well 11. Each compound concentration was tested in triplicate.
(§7) (c) Inoculation of 96-well plate: The same number of bacteria (1×10^5 CFU/mL) were prepared after 150-fold dilution of 0.5 McFarland inoculum and used to add in the wells of different drug concentrations. 50 μL of working inoculum was carefully added to each well, except the sterility well 12. Mixing is performed by gently flushing the inoculum in and out of the pipette tip four or five times, avoiding splashing and bubble formation.
(§8) (d) Incubation: Plates were incubated at 35° C. for 24 hours without shaking or agitation.
(§9) (e) Determination of MIC: After 18-24 hours of incubation, the plates were read for MIC. SpectraMax iD5 microplate reader was used to measure turbidity at different time points. Turbidity (OD) increases as the bacteria grow over time.

[3] = tested on: Vero-E6 cells; assay: CytoTox 96 Nonradioactive Cytotoxicity Assay (LDH release)
Experimental: Cytotoxicity was measured using Promega™ CytoTox 96™ Nonradioactive Cytotoxicity Assay (cat #G1780, Promega, Madison, WI, USA).
Cytotoxicity was measured using the Promega™ CytoTox 96™ Nonradioactive Cytotoxicity Assay kit (cat #G1780, Promega, Madison, WI, USA) in 50 μL reactions and 96-well format (cat #161093, Thermo Fisher Scientific, Waltham, MA, USA) according to the manufacturer's protocol, except we used 20 μL of 10× Lysis Solution per 100 μL of sample and incubated at 37° C. for 30 minutes to generate the maximum LDH release control. The assay was measured using a BioTeK Synergy™ HT plate reader (model #7091000, BioTek, Winooski, VT, USA) at an optical density of 490 nm (OD490). […] LLC-MK2 cells were assessed for cytotoxicity at 5 days, whereas Vero E6 and Calu-3 cells were assessed for cytotoxicity every 24 hours from 1-5 days. Percent cytotoxicity was calculated by dividing the experimental LDH release at OD490 b.

[4] = tested on: MRSA (ATCC 43300); assay: Minimum bactericidal concentration (MBC) assay, MRSA; type: cell-based; settings: Staphylococcus aureus, MRSA
Experimental: (§1) (f) Determination of MBC: MBC was determined by sampling all the macroscopically clear wells. Before sampling, the wells were gently mixed by flushing them with a pipette, and a 5 μL was removed and placed on an agar plate suitable for the growth of the microbe being tested. The agar plate was divided into three parts to test three trials of a single concentration. The sample was allowed to be absorbed into the agar for ˜30 minutes. The plates were then incubated for 24 hours at 37° C. After incubation, the plates were examined to determine the compound concentration at which 99.9% killing was achieved.

[5] = tested on: SARS-CoV-2; assay: RT-PCR quantitation of viral copy number; type: cell-based; settings: 120 hours after infection
[6] = tested on: E. faecalis (ATCC 29212); assay: Broth microdilution MIC assay, E. faecalis; settings: Enterococcus faecalis, ATCC29212, read-out: MIC (bacterial growth inhibition)
Experimental: as §2, §3, §4, §5, §6, §7, §8, §9

[7] = tested on: MRSA: S. aureus resistant to methicillin and oxacillin (ATCC 43300); assay: Broth microdilution MIC assay, MRSA; settings: Staphylococcus aureus, ATCC43300|MRSA, read-out: MIC (bacterial growth inhibition)
Experimental: as §2, §3, §4, §5, §6, §7, §8, §9

[8] = tested on: VREF (ATCC 51299); assay: Minimum bactericidal concentration (MBC) assay, VREF; type: cell-based, Enterococcus faecalis; settings: VREF; for MBC: Enterococcus faecalis, ATCC51299, read-out: MBC (bactericidal activity)
Experimental: as §1

[9] = tested on: VREF: E. faecalis resistant to vancomycin (ATCC 51299); assay: Broth microdilution MIC assay, VREF; settings: Enterococcus faecalis
Experimental: as §2, §3, §4, §5, §6, §7, §8, §9

[10] = tested on: gram positive and negative bacteria; assay: Antibacterial testing against gram positive and negative bacteria; type: cell-based
Experimental: In addition to the harmaline dimers compounds, other bicyclic indole compounds (203, 233, 476/6 and 504/6,) were also tested against gram positive and negative bacteria. Particularly, the indole ethyl urea molecules 203, 233 and the tryptamide dimer molecules 476/6, 504/6, as shown below, were tested.

[11] = tested on: S. aureus (ATCC 29213); assay: Minimum bactericidal concentration (MBC) assay, S. aureus; type: cell-based; settings: Staphylococcus aureus, S. aureus
Experimental: as §1

[12] = tested on: P. aeruginosa (ATCC 10145); assay: Broth microdilution MIC assay, P. aeruginosa
Experimental: as §2, §3, §4, §5
(b) Compound Dilution: All compounds used in the study were dissolved in sterile ultra-pure DMSO (VWR International, PA, USA) and maintained at −80° C. […]
(e) Determination of MIC: After 18-24 hours of incubation, the plates were read for MIC. SpectraMax iD5 microplate reader was used to measure turbidity at different time points. […]

[13] = Solubility in DMSO; type: physicochemical
[14] = tested on: E. faecalis (ATCC 29212); assay: Minimum bactericidal concentration (MBC) assay, E. faecalis; type: cell-based, Enterococcus faecalis; settings: for MBC: Enterococcus faecalis, ATCC29212
Experimental: as §1

[15] = tested on: E. coli (ATCC 25922); assay: Broth microdilution MIC assay, E. coli; settings: E. coli
Experimental: as §2, §3, §4, §5, §6, §7, §8, §9

[16] = tested on: engineered Salmonella typhimurium strain (umuC, β-galactosidase); settings: without S9 activation
From the text: The EBPI UMU-ChromoTest™ assay is used for the detection and quantification of genotoxicity of compounds and is based on the International Organization for Standardization protocol ISO 13829. The UMU-ChromoTest™ assay utilizes a native bacterial mechanism for the detection of compound genotoxicity. The bacteria used for the assay is an engineered Salmonella typhimurium strain developed to include a gene coding for the β-galactosidase (β-gal) enzyme tethered to the umuC, a damage response gene. DNA damage activates the SOS system to transcribe β-gal proportional to the level of SOS induction. The UMU-ChromoTest™ bacterial strain has modifications to increase sensitivity to genotoxins with (a) increased sensitivity for even limited damage, (b) modified outer membrane of the cell to increase permeability to exogenous materials, and (c) production of a color change on addition to chromogenic substrate (ONPG), which is a quantitative measure of genotoxic damage to bacterial DNA.
Rehydration of Dried Bacteria and Culture Growth: The bacteria were rehydrated and incubated at 37° C. for 16-18 hours. OD600 of the overnight culture should be 0.5 or at least above 0.1 at 600 nm.
Sample Preparation and Plate Setup: The dimer compounds were dissolved in DMSO. All dilution and controls were made in the solvent of 10% DMSO in sterile 0.85% saline. The pH of the compounds was adjusted to 7.0±0.2 before incubation with bacteria to facilitate bacterial growth and prevent degradation of ONPG later in the assay. The solutions of hydrochloric acid and sodium hydroxide were used to adjust pH with minimal addition volumes to prevent excessive sample dilution. Six samples were run at 4 dilutions at a time.
Preliminary Dilution of Bacteria: The overnight bacterial culture was diluted to 50% by performing a reinoculation with 5 mL of overnight growth and 5 mL of fresh Growth media. The reinoculated bacteria was inoculated for 1.5 hours at 37° C. The OD600 should be approximately 80% of the reading from overnight growth or slightly higher.
Preparation of Plate A: Distilled water (180 μL) was added to all wells, except for rows A to F, columns 1 to 3 and row H, columns 1 to 6. Rows A to F are used for 6 compounds per plate. The test compounds (360 μL) were added to the first three wells (three replicates) of the same microplate, such that wells 1-3 were a triplicate set of the highest concertation of test compound (360 μL). Wells 4-12 each contained 180 μL of distilled water. For dilution, half of the contents (180 μL) from wells 1-3 was transferred to wells 4-6 which makes a second triplicate set. For a third dilution, half of the contents from wells 4-6 were transferred to 7-9, and for the fourth triplicate set, half of the contents from wells 7-9 was transferred to 10-12. […]

[17] = ATCC51299, 24 h, read-out: MIC (bacterial growth inhibition)
[18] = ATCC51299, 48 h, read-out: MIC (bacterial growth inhibition)
[19] = ATCC51299, read-out: MIC (bacterial growth inhibition)
[20] = ATCC29213, 24 h, read-out: MBC (kills bacteria)
[21] = ATCC29213, read-out: MBC (bactericidal activity)

Row | Compound | MIC ([2]; time not given) [µg/mL] | MBC ([4]; read-out: MBC) [µg/mL] | MBC ([4]; read-out: MRSA-MBC) [µM] | MIC [6] | MIC ([7]; 24 h) [µg/mL] | MIC ([7]; 90 h) [µg/mL] | MIC [9, 17] [µg/mL] | MIC [9, 18] [µg/mL] | MIC [9, 19] [µg/mL] | bacteriostatic/bactericidal activity [10] | MBC [11, 20] [µg/mL] | MBC [11, 21] [µM] | higher efficacy than harmaline [2] [fold] | higher antibacterial activity than harmaline dimer without a substitution (GZ440/6) [2] [fold] | MBC [8] [µg/mL] | MIC (bacterial growth inhibition) [12] | solubility in DMSO (time to dissolve) [13] [min] | MBC (kills bacteria) [14] [µg/mL] | MBC [14] [µM] | MIC (bacterial growth inhibition) [15] | also measured
1 | COc1ccc2c3c([nH]c2c1)C(CCCC1=NCCc2c1[nH]c1cc(OC)ccc21)=NCC3 [GZ440/6] | 88 | 110 | 250 | 88 µg/mL and 200 µM | 27.5 (≈ 62.5 µM) | 55 (≈ 125 µM) | 55 (≈ 125 µM) | 110 (≈ 250 µM) | > 110 | show bacteriostatic and bactericidal activity | – | – | – | – | – | – | – | – | – | – | inhibition of plaque formation ([1]; 2.0, 5.0 and 10.0 μM, CoV-2 in Vero-E6 cells at 120 h after infection): negligible inhibition; inhibition of plaque formation ([1]; at 20 μM and above): inhibition of plaque formation was significant; MIC [2]: 200 µM; cytotoxicity ([3]; 20 μM and 40 μM): no significant cytotoxicity; cytotoxicity ([3]; Vero-E6 cells, 2.0 μM, 5.0 μM and 10.0 μM): negligible cytotoxicity; viral load (viral RNA levels) ([5]; higher concentrations (20 and 40 μM)): decreased viral load; viral load (viral RNA levels) ([5]; lower concentrations): not in lower concentrations; MBC (bactericidal activity) [8]: No bactericidal action was observed
2 | COc1ccc2c3c([nH]c2c1)C(CC(CC1=NCCc2c1[nH]c1cc(OC)ccc21)c1cccnc1)=NCC3 [GK517.3, 1,1′-(2-(pyridin-3-yl)propane-1,3-diyl)bis(7-methoxy-4,9-dihydro-3H-pyrido[3,4-b]indole)] | 51.7 | 32.4 | 62.5 | 51.7 µg/mL (≈ 99.9 µM) | 8 (≈ 15.5 µM) | 16.2 (≈ 31.3 µM) | 32.4 (≈ 62.5 µM) | – | – | show bacteriostatic and bactericidal activity | 104 | 200 | ~15 | 1.75 | 64.7 (≈ 125 µM) | no inhibition was observed | 10 to 15 | 103.5 (≈ 200 µM) | 200 (≈ 104 µg/mL) | no inhibition was observed | MIC ([9]; ATCC51299, 90 h, read-out: MIC (bacterial growth inhibition)): 64.7 µg/mL (≈ 125 µM)
3 | COc1ccc2c3c([nH]c2c1)C(CC(CC1=NCCc2c1[nH]c1cc(OC)ccc21)c1c[nH]cn1)=NCC3 [1,1′-(2-(1H-imidazol-4-yl)propane-1,3-diyl)bis(7-methoxy-4,9-dihydro-3Hpyrido[3,4-b]indole)] | 50.6 | 63.3 | 125 | 50.6 µg/mL (≈ 99.9 µM) | 15.8 (≈ 31.2 µM) | 31.7 (≈ 62.5 µM) | 63.3 (≈ 125 µM) | 127 (≈ 250 µM) | > 127 | show bacteriostatic and bactericidal activity | 101 | 200 | ~15 | 1.75 | > 127 | no inhibition was observed | 30 to 40 | 101.2 (≈ 200 µM) | 200 (≈ 101 µg/mL) | no inhibition was observed | genotoxic concentration (not genotoxic up to / toxicity above) [16]: above 85 μM

From US20240002405A1, “ANTIMICROBIAL COMPOUNDS, SYNTHESIS METHODS, AND USES THEREOF” (Ankh Life Sciences Limited, priority 2022, published 2024)
